One compound from paper doi:10.1101/2019.12.11.872838v1 (biorxiv, 2019) can be followed below.

Structures are written as SMILES. Some results are limits rather than exact numbers.

For the assay, the target named is KDM1A (Homo sapiens, UniProt O60341). Kind of assay: ALPHA screen demethylation assay. Format: biochemical.

By IC50 is commonly meant the midpoint of a concentration-inhibition curve. In turn, `CO[C@H]1/C=C\C=C(/C)C(=O)NC2=CC(=O)C(NCCN(C)C)=C(C[C@@H](C)C[C@H](OC)[C@H](O)[C@@H](C)/C=C(\C)[C@@H]1OC(N)=O)C2=O` [17-DMAG] returned a half-inhibitory concentration (IC50) of more than 10 µM.
